{"source": "paper PMC8224687", "about": "“Lipophilicity, Pharmacokinetic Properties, and Molecular Docking Study on SARS-CoV-2 Target for Betulin Triazole Derivatives with Attached 1,4-Quinone” (Pharmaceutics, 2021)", "key": {"[1]": {"conditions": "pH 7.4"}, "[2]": {"test": "Experimental lipophilicity by RP-TLC (RM0, logPTLC, hydrophobic index)", "conditions": "for RM0 (chromatographic parameter of lipophilicity): RP-TLC, acetone / TRIS 0.2 M pH 7.4, extrapolated to zero acetone; for chromatographic logP: logPTLC (experimental lipophilicity); for chromatographic logP / logPTLC (experimental lipophilicity): from RM0 by calibration curve Equation (4); for hydrophobic index (φ0): φ0 = −RM0/b"}, "[3]": {"set-up": "method as in PMID 9879505, doi:10.1021/ja00193a003", "conditions": "literature values of standard substances ref 52, 53; cited from earlier work"}}, "note": "Like-named read-outs stand apart in the source and are kept apart here."}
{"smiles": "CC(=O)c1ccc(Br)cc1", "note": "[4-Bromoacetophenone, 4-bromoacetophenone]", "values": [{"measurement": "RM0 (chromatographic parameter of lipophilicity)", "setting": "[1]", "value": 1.89}]}
{"smiles": "CC(=O)Nc1ccccc1", "note": "[Acetanilide, acetanilide, reference compound]", "values": [{"measurement": "RM0 (chromatographic parameter of lipophilicity)", "setting": "[2]", "value": 0.55}, {"measurement": "chromatographic logP", "setting": "[2]", "value": 1.19}]}
{"smiles": "c1ccc2cc3ccccc3cc2c1", "note": "[Anthracene, anthracene, reference compound]", "values": [{"measurement": "RM0 (chromatographic parameter of lipophilicity)", "setting": "[2]", "value": 3.48}, {"measurement": "chromatographic logP", "setting": "[2]", "value": 4.52}]}
{"smiles": "C=C(C)[C@@H]1CC[C@]2(COC(=O)c3cn(CCCOC4=C(Cl)C(=O)c5cccnc5C4=O)nn3)CC[C@]3(C)C(CCC4[C@@]5(C)CC[C@H](O)C(C)(C)C5CC[C@]43C)C12", "note": "(stereo partly shown) [Compound 1]", "values": [{"measurement": "RM0 (chromatographic parameter of lipophilicity)", "setting": "[2]", "value": 3.51}, {"measurement": "hydrophobic index (φ0)", "setting": "[2]", "value": 82.40}]}
{"smiles": "C=C(C)[C@@H]1CC[C@]2(COC(=O)c3cn(CCCOC4=C(Cl)C(=O)c5cccnc5C4=O)nn3)CC[C@]3(C)C(CCC4[C@@]5(C)CCC(=O)C(C)(C)C5CC[C@]43C)C12", "note": "(stereo partly shown) [Compound 2]", "values": [{"measurement": "RM0 (chromatographic parameter of lipophilicity)", "setting": "[2]", "value": 3.64}, {"measurement": "chromatographic logP", "setting": "[2]", "value": 4.71}, {"measurement": "hydrophobic index (φ0)", "setting": "[2]", "value": 83.14}]}
{"smiles": "C=C(C)[C@@H]1CC[C@]2(COC(=O)c3cn(CCCOC4=C(Cl)C(=O)c5cccnc5C4=O)nn3)CC[C@]3(C)C(CCC4[C@@]5(C)CC[C@H](OC(C)=O)C(C)(C)C5CC[C@]43C)C12", "note": "(stereo partly shown) [Compound 3]", "values": [{"measurement": "RM0 (chromatographic parameter of lipophilicity)", "setting": "[2]", "value": 3.97}, {"measurement": "logPTLC (experimental lipophilicity)", "setting": "[2]", "value": 5.08}, {"measurement": "hydrophobic index (φ0)", "setting": "[2]", "value": 84.76}]}
{"smiles": "C=C(C)[C@@H]1CC[C@]2(COC(=O)c3cn(CCCOC4=C(Cl)C(=O)c5cccnc5C4=O)nn3)CC[C@]3(C)C(CCC4[C@@]5(C)CC[C@H](OC(=O)CC)C(C)(C)C5CC[C@]43C)C12", "note": "(stereo partly shown) [Compound 4]", "values": [{"measurement": "RM0 (chromatographic parameter of lipophilicity)", "setting": "[2]", "value": 4.08}, {"measurement": "chromatographic logP", "setting": "[2]", "value": 5.21}, {"measurement": "hydrophobic index (φ0)", "setting": "[2]", "value": 87.00}]}
{"smiles": "C=C(C)[C@@H]1CC[C@]2(COC(=O)c3cn(CCCOC4=C(Cl)C(=O)c5ccncc5C4=O)nn3)CC[C@]3(C)C(CCC4[C@@]5(C)CC[C@H](O)C(C)(C)C5CC[C@]43C)C12", "note": "(stereo partly shown) [Compound 5]", "values": [{"measurement": "RM0 (chromatographic parameter of lipophilicity)", "setting": "[2]", "value": 3.56}, {"measurement": "hydrophobic index (φ0)", "setting": "[2]", "value": 79.81}]}
{"smiles": "C=C(C)[C@@H]1CC[C@]2(COC(=O)c3cn(CCCOC4=C(Cl)C(=O)c5ccncc5C4=O)nn3)CC[C@]3(C)C(CCC4[C@@]5(C)CCC(=O)C(C)(C)C5CC[C@]43C)C12", "note": "(stereo partly shown) [Compound 6]", "values": [{"measurement": "RM0 (chromatographic parameter of lipophilicity)", "setting": "[2]", "value": 3.59}, {"measurement": "hydrophobic index (φ0)", "setting": "[2]", "value": 82.83}]}
{"smiles": "C=C(C)[C@@H]1CC[C@]2(COC(=O)c3cn(CCCOC4=C(Cl)C(=O)c5ccncc5C4=O)nn3)CC[C@]3(C)C(CCC4[C@@]5(C)CC[C@H](OC(C)=O)C(C)(C)C5CC[C@]43C)C12", "note": "(stereo partly shown) [Compound 7]", "values": [{"measurement": "RM0 (chromatographic parameter of lipophilicity)", "setting": "[2]", "value": 4.07}, {"measurement": "chromatographic logP", "setting": "[2]", "value": 5.2}, {"measurement": "hydrophobic index (φ0)", "setting": "[2]", "value": 83.48}]}
{"smiles": "C=C(C)[C@@H]1CC[C@]2(COC(=O)c3cn(CCCOC4=C(Cl)C(=O)c5ccncc5C4=O)nn3)CC[C@]3(C)C(CCC4[C@@]5(C)CC[C@H](OC(=O)CC)C(C)(C)C5CC[C@]43C)C12", "note": "(stereo partly shown) [Compound 8]", "values": [{"measurement": "RM0 (chromatographic parameter of lipophilicity)", "setting": "[2]", "value": 4.24}, {"measurement": "logPTLC (experimental lipophilicity)", "setting": "[2]", "value": 5.39}, {"measurement": "hydrophobic index (φ0)", "setting": "[2]", "value": 88.21}]}
{"smiles": "C=C(C)[C@@H]1CC[C@]2(COC(=O)c3cn(CCCOC4=C(Cl)C(=O)c5ccc(C)nc5C4=O)nn3)CC[C@]3(C)C(CCC4[C@@]5(C)CC[C@H](O)C(C)(C)C5CC[C@]43C)C12", "note": "(stereo partly shown) [Compound 9]", "values": [{"measurement": "RM0 (chromatographic parameter of lipophilicity)", "setting": "[2]", "value": 3.65}, {"measurement": "chromatographic logP", "setting": "[2]", "value": 4.72}, {"measurement": "hydrophobic index (φ0)", "setting": "[2]", "value": 82.43}]}
{"smiles": "C=C(C)[C@@H]1CC[C@]2(COC(=O)c3cn(CCCOC4=C(Cl)C(=O)c5ccc(C)nc5C4=O)nn3)CC[C@]3(C)C(CCC4[C@@]5(C)CCC(=O)C(C)(C)C5CC[C@]43C)C12", "note": "(stereo partly shown) [Compound 10]", "values": [{"measurement": "RM0 (chromatographic parameter of lipophilicity)", "setting": "[2]", "value": 3.77}, {"measurement": "hydrophobic index (φ0)", "setting": "[2]", "value": 83.85}]}
{"smiles": "C=C(C)[C@@H]1CC[C@]2(COC(=O)c3cn(CCCOC4=C(Cl)C(=O)c5ccc(C)nc5C4=O)nn3)CC[C@]3(C)C(CCC4[C@@]5(C)CC[C@H](OC(C)=O)C(C)(C)C5CC[C@]43C)C12", "note": "(stereo partly shown) [Compound 11]", "values": [{"measurement": "RM0 (chromatographic parameter of lipophilicity)", "setting": "[2]", "value": 4.12}, {"measurement": "logPTLC (experimental lipophilicity)", "setting": "[2]", "value": 5.26}, {"measurement": "hydrophobic index (φ0)", "setting": "[2]", "value": 85.94}]}
{"smiles": "C=C(C)[C@@H]1CC[C@]2(COC(=O)c3cn(CCCOC4=C(Cl)C(=O)c5ccc(C)nc5C4=O)nn3)CC[C@]3(C)C(CCC4[C@@]5(C)CC[C@H](OC(=O)CC)C(C)(C)C5CC[C@]43C)C12", "note": "(stereo partly shown) [Compound 12]", "values": [{"measurement": "RM0 (chromatographic parameter of lipophilicity)", "setting": "[2]", "value": 4.39}, {"measurement": "logPTLC (experimental lipophilicity)", "setting": "[2]", "value": 5.56}, {"measurement": "hydrophobic index (φ0)", "setting": "[2]", "value": 88.32}]}
{"smiles": "C=C(C)[C@@H]1CC[C@]2(COC(=O)c3cn(CCCOC4=C(Cl)C(=O)c5ccccc5C4=O)nn3)CC[C@]3(C)C(CCC4[C@@]5(C)CC[C@H](O)C(C)(C)C5CC[C@]43C)C12", "note": "(stereo partly shown) [Compound 13]", "values": [{"measurement": "RM0 (chromatographic parameter of lipophilicity)", "setting": "[2]", "value": 3.78}, {"measurement": "logPTLC (experimental lipophilicity)", "setting": "[2]", "value": 4.87}, {"measurement": "hydrophobic index (φ0)", "setting": "[2]", "value": 87.13}]}
{"smiles": "C=C(C)[C@@H]1CC[C@]2(COC(=O)c3cn(CCCOC4=C(Cl)C(=O)c5ccccc5C4=O)nn3)CC[C@]3(C)C(CCC4[C@@]5(C)CCC(=O)C(C)(C)C5CC[C@]43C)C12", "note": "(stereo partly shown) [Compound 14]", "values": [{"measurement": "RM0 (chromatographic parameter of lipophilicity)", "setting": "[2]", "value": 3.84}, {"measurement": "logPTLC (experimental lipophilicity)", "setting": "[2]", "value": 4.93}, {"measurement": "hydrophobic index (φ0)", "setting": "[2]", "value": 87.76}]}
{"smiles": "C=C(C)[C@@H]1CC[C@]2(COC(=O)c3cn(CCCOC4=C(Cl)C(=O)c5ccccc5C4=O)nn3)CC[C@]3(C)C(CCC4[C@@]5(C)CC[C@H](OC(C)=O)C(C)(C)C5CC[C@]43C)C12", "note": "(stereo partly shown) [Compound 15]", "values": [{"measurement": "RM0 (chromatographic parameter of lipophilicity)", "setting": "[2]", "value": 4.21}, {"measurement": "logPTLC (experimental lipophilicity)", "setting": "[2]", "value": 5.35}, {"measurement": "hydrophobic index (φ0)", "setting": "[2]", "value": 85.11}]}
{"smiles": "C=C(C)[C@@H]1CC[C@]2(COC(=O)c3cn(CCCOC4=C(Cl)C(=O)c5ccccc5C4=O)nn3)CC[C@]3(C)C(CCC4[C@@]5(C)CC[C@H](OC(=O)CC)C(C)(C)C5CC[C@]43C)C12", "note": "(stereo partly shown) [Compound 16]", "values": [{"measurement": "RM0 (chromatographic parameter of lipophilicity)", "setting": "[2]", "value": 4.58}, {"measurement": "chromatographic logP", "setting": "[2]", "value": 5.77}, {"measurement": "hydrophobic index (φ0)", "setting": "[2]", "value": 86.18}]}
{"smiles": "C=C(C)[C@@H]1CC[C@]2(COC(=O)c3cn(CCCO)nn3)CC[C@]3(C)C(CCC4[C@@]5(C)CC[C@H](O)C(C)(C)C5CC[C@]43C)C12", "note": "(stereo partly shown) [Compound 17]", "values": [{"measurement": "RM0 (chromatographic parameter of lipophilicity)", "setting": "[2]", "value": 4.40}, {"measurement": "chromatographic logP", "setting": "[2]", "value": 5.57}, {"measurement": "hydrophobic index (φ0)", "setting": "[2]", "value": 82.62}]}
{"smiles": "C=C(C)[C@@H]1CC[C@]2(COC(=O)c3cn(CCCO)nn3)CC[C@]3(C)C(CCC4[C@@]5(C)CCC(=O)C(C)(C)C5CC[C@]43C)C12", "note": "(stereo partly shown) [Compound 18]", "values": [{"measurement": "RM0 (chromatographic parameter of lipophilicity)", "setting": "[2]", "value": 4.54}, {"measurement": "chromatographic logP", "setting": "[2]", "value": 5.73}, {"measurement": "hydrophobic index (φ0)", "setting": "[2]", "value": 83.67}]}
{"smiles": "C=C(C)[C@@H]1CC[C@]2(COC(=O)c3cn(CCCO)nn3)CC[C@]3(C)C(CCC4[C@@]5(C)CC[C@H](OC(C)=O)C(C)(C)C5CC[C@]43C)C12", "note": "(stereo partly shown) [Compound 19]", "values": [{"measurement": "RM0 (chromatographic parameter of lipophilicity)", "setting": "[2]", "value": 5.07}, {"measurement": "chromatographic logP", "setting": "[2]", "value": 6.33}, {"measurement": "hydrophobic index (φ0)", "setting": "[2]", "value": 86.06}]}
{"smiles": "C=C(C)[C@@H]1CC[C@]2(COC(=O)c3cn(CCCO)nn3)CC[C@]3(C)C(CCC4[C@@]5(C)CC[C@H](OC(=O)CC)C(C)(C)C5CC[C@]43C)C12", "note": "(stereo partly shown) [Compound 20]", "values": [{"measurement": "RM0 (chromatographic parameter of lipophilicity)", "setting": "[2]", "value": 5.26}, {"measurement": "chromatographic logP", "setting": "[2]", "value": 6.55}, {"measurement": "hydrophobic index (φ0)", "setting": "[2]", "value": 87.13}]}
{"smiles": "Clc1ccc(C(c2ccc(Cl)cc2)C(Cl)(Cl)Cl)cc1", "note": "[DDT, dichlorodiphenyltrichloroethane, reference compound]", "values": [{"measurement": "logPlit", "setting": "[3]", "value": 6.01}, {"measurement": "RM0 (chromatographic parameter of lipophilicity)", "setting": "[2]", "value": 4.87}, {"measurement": "logPTLC (experimental lipophilicity)", "setting": "[2]", "value": 6.17}]}
{"smiles": "c1ccc(CCc2ccccc2)cc1", "note": "[Dibenzyl, dibenzyl]", "values": [{"measurement": "RM0 (chromatographic parameter of lipophilicity)", "setting": "[1]", "value": 3.65}]}
{"smiles": "C[C@]12C=CC(=O)C=C1CC[C@@H]1[C@@H]2C(=O)C[C@@]2(C)[C@H]1CC[C@]2(O)C(=O)CO", "note": "[Prednisone, prednisone, reference compound]", "values": [{"measurement": "RM0 (chromatographic parameter of lipophilicity)", "setting": "[2]", "value": 0.73}, {"measurement": "chromatographic logP", "setting": "physchem", "value": 1.39}]}
